One assay concerns the target mouse TAAR1 (Mus musculus (Mouse), UniProt Q923Y8). Description: Radioligand binding assay on mouse TAAR1. As to conditions: for Ki: mouse TAAR1 (first value of the cell), membranes of HEK-293 cells stably expressing mouse TAAR1, read-out: Ki (μM) mouse/rat. Here is the method: (§1) Construction of TAAR Expression Plasmids and Stably Transfected Cell Lines
(§2) For the construction of expression plasmids the coding sequences of human, rat and mouse TAAR 1 were amplified from genomic DNA essentially as described by Lindemann et al.. The Expand High Fidelity PCR System (Roche Diagnostics) was used with 1.5 mM Mg^2+ and purified PCR products were cloned into pCR2.1-TOPO cloning vector (Invitrogen) following the instructions of the manufacturer. PCR products were subcloned into the pIRESneo2 vector (BD Clontech, Palo Alto, Calif.), and expression vectors were sequence verified before introduction in cell lines.
(§3) HEK293 cells (ATCC # CRL-1573) were cultured essentially as described by Lindemann et al. (2005). For the generation of stably transfected cell lines HEK293 cells were transfected with the pIRESneo2 expression plasmids containing the TAAR coding sequences (described above) with Lipofectamine 2000 (Invitrogen) according to the instructions of the manufacturer, and 24 hrs post transfection the culture medium was supplemented with 1 mg/ml G418 (Sigma, Buchs, Switzerland). After a culture period of about 10 d clones were isolated, expanded and tested for responsiveness to trace amines (all compounds purchased from Sigma) with the cAMP Biotrak Enzyme immunoassay (EIA) System (Amersham) following the non-acetylation EIA procedure provided by the manufacturer.
Radioligand Binding Assay on Mouse TAAR1
(§4) Membrane Preparation and Radioligand Binding.
HEK-293 cells stably expressing mouse TAAR1 were maintained at 37° C. and 5% CO2 in DMEM high glucose medium, containing fetal calf serum (10%, heat inactivated for 30 min at 56° C.), penicillin/streptomycin (1%), and 375 μg/ml geneticin (Gibco). Cells were released from culture flasks using trypsin/EDTA, harvested, washed twice with ice-cold PBS (without Ca^2+and Mg^2+), pelleted at 1,000 rpm for 5 min at 4° C., frozen and stored at −80° C. Frozen pellets were suspended in 20 ml HEPES-NaOH (20 mM, pH 7.4) containing 10 mM EDTA and homogenized with a Polytron (PT 6000, Kinematica) at 14,000 rpm for 20 s. The homogenate was centrifuged at 48,000×g for 30 min at 4° C. Subsequently, the supernatant was removed and discarded, and the pellet resuspended in 20 ml HEPES-NaOH (20 mM, pH 7.4) containing 0.1 mM EDTA using the Polytron (20 s at 14,000 rpm). This procedure was repeated and the final pellet resuspended in HEPES-NaOH containing 0.1 mM EDTA and homogenized using the Polytron. Typically, aliquots of 2 ml membrane portions were stored at −80° C. With each new membrane batch the dissociation constant (Kd) was determined via a saturation curve. The TAAR1 radioligand ^3[H]-(S)-4-[(ethyl-phenyl-amino)-methyl]-4,5-dihydro-oxazol-2-ylamine (described in WO 2008/098857) was used at a concentration equal to the calculated Kd value, that was usually around 0.7 nM, resulting in the binding of approximately 0.5% of the radioligand and a specific binding representing approximately 70% of the total binding. Nonspecific binding was defined as the amount of ^3[H]-(S)-4-[(ethyl-phenyl-amino)-methyl]-4,5-dihydro-oxazol-2-ylamine bound in the presence of 10 μM unlabeled ligand. All compounds were tested at a broad range of concentrations ([…]) in duplicates. The test compounds (20 […]μl/well) were transferred into a 96 deep well plate (TreffLab), and 180 μl of HEPES-NaOH (20 mM, pH 7.4) containing MgCl2 (10 mM) and CaCl2 (2 mM) (binding buffer), 300 μl of the radioligand ^3[H]-(S)-4-[(ethyl-phenyl-amino)-methyl]-4,5-dihydro-oxazol-2-ylamine at a concentration of 3.3×Kd in nM and 500 μl of the membranes (resuspended at […]) added. The 96 deep well plates were incubated for 1 hr at 4° C. Incubations were terminated by rapid filtration through Unifilter-96 plates (Packard Instrument Company) and glass filters GF/C (Perkin Elmer) presoaked for 1 hr in polyethylenimine (0.3%) and washed 3 times with 1 ml of cold binding buffer. […]

In another assay the target is rat TAAR1 (Rattus norvegicus (Rat), UniProt Q923Y9). Description: Radioligand binding assay on rat TAAR1. The conditions noted are these: for Ki: rat TAAR1 (second value of the cell), membranes of HEK-293 cells stably expressing rat TAAR1, read-out: Ki (μM) mouse/rat. How it is done:
as §1, §2, §3
Radioligand Binding Assay on Rat TAAR1
as §4
HEK-293 cells stably expressing rat TAAR1 were maintained at 37° C. and 5% CO2 in DMEM high glucose medium, containing fetal calf serum (10%, heat inactivated for 30 min at 56° C.), penicillin/streptomycin (1%), and 375 μg/ml geneticin (Gibco). Cells were released from culture flasks using trypsin/EDTA, harvested, washed twice with ice-cold PBS (without Ca^2+ and Mg^2+), pelleted at 1,000 rpm for 5 min at 4° C., frozen and stored at −80° C. Frozen pellets were suspended in 20 ml HEPES-NaOH (20 mM, pH 7.4) containing 10 mM EDTA and homogenized with a Polytron (PT 6000, Kinematica) at 14,000 rpm for 20 s. The homogenate was centrifuged at 48,000×g for 30 min at 4° C. Subsequently, the supernatant was removed and discarded, and the pellet resuspended in 20 ml HEPES-NaOH (20 mM, pH 7.4) containing 0.1 mM EDTA using the Polytron (20 s at 14,000 rpm). This procedure was repeated and the final pellet resuspended in HEPES-NaOH containing 0.1 mM EDTA and homogenized using the Polytron. Typically, aliquots of 2 ml membrane portions were stored at −80° C. With each new membrane batch the dissociation constant (Kd) was determined via a saturation curve. […] Nonspecific binding was defined as the amount of ^3[H]-(S)-4-[(ethyl-phenyl-amino)-methyl]-4,5-dihydro-oxazol-2-ylamine bound in the presence of 10 μM unlabeled ligand. All compounds were tested at a broad range of concentrations ([…]) in duplicates. The test compounds (20 […]μl/well) were transferred into a 96 deep well plate (TreffLab), and 180 μl of HEPES-NaOH (20 mM, pH 7.4) containing MgCl2 (10 mM) and CaCl2 (2 mM) (binding buffer), 300 μl of the radioligand ^3[H]-(S)-4-[(ethyl-phenyl-amino)-methyl]-4,5-dihydro-oxazol-2-ylamine at a concentration of 3.3×Kd in nM and 500 μl of the membranes (resuspended at 50 μg protein per ml) added. The 96 deep well plates were incubated for 1 hr at 4° C. Incubations were terminated by rapid filtration through Unifilter-96 plates (Packard Instrument Company) and glass filters GF/C (Perkin Elmer) presoaked for 1 hr in polyethylenimine (0.3%) and washed 3 times with 1 ml of cold binding buffer. After addition of 45 μl of Microscint 40 (PerkinElmer) the Unifilter-96 plate was sealed and after 1 hr the ratioactivity counted using a TopCount Microplate Scintillation Counter (Packard Instrument Company).

rat TAAR1, sequence (Q923Y9 whole entry): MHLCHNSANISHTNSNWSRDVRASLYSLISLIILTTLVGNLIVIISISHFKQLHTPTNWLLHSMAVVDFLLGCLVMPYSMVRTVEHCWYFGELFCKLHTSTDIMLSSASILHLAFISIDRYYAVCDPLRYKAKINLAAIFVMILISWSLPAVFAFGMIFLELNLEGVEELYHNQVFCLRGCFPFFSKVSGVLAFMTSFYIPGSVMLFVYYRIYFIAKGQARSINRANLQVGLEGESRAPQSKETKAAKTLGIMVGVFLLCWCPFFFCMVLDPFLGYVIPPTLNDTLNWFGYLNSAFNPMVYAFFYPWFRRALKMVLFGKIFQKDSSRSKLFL
mouse TAAR1, sequence (Q923Y8 whole entry): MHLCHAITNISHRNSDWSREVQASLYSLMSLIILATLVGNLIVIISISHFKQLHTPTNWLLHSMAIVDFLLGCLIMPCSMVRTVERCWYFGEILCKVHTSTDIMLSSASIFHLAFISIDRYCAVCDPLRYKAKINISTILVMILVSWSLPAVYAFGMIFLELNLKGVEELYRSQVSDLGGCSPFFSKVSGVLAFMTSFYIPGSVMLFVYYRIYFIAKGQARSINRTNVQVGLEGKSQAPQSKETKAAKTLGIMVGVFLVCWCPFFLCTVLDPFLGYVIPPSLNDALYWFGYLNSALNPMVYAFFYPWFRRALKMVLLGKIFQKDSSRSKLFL

On to `O=C(Nc1ccc(C[C@]23CN[C@H](CO2)C3)cc1)c1[nH]nc(C2CC2)c1Cl` [Example 29, 4-Chloro-3-cyclopropyl-N-[4-[[(1 S,4S)-5-oxa-2-azabicyclo[2.2.1]heptan-4-yl]methyl]phenyl]-1H-pyrazole-5-carboxamide], for which the Ki on mouse TAAR1 was 0.476 µM; on rat TAAR1, 0.633 µM.
For `O=C(Nc1ccc(C[C@@]23CN[C@@H](CO2)C3)cc1)c1cccc(Cl)c1` [Example 39, 3-Chloro-N-[4-[[(1R,4R)-5-oxa-2-azabicyclo[2.2.1]heptan-4-yl]methyl]phenyl]benzamide], the values for the Ki on mouse TAAR1 and at rat TAAR1 were 0.0022 µM and 0.0551 µM, respectively.
For `O=C(Nc1ccc(C[C@]23CN[C@H](CO2)C3)cc1)Nc1ccc(C(F)(F)F)cc1` [Example 8, 1-[4-[[(1S,4S)-5-Oxa-2-azabicyclo[2.2.1]heptan-4-yl]methyl]phenyl]-3-[4-(trifluoromethyl)phenyl]urea] the same measures were 0.846 µM and 0.0442 µM.
In the same order, the values of `Clc1ccc(Nc2ccc(C[C@@]34CN[C@@H](CO3)C4)cc2)nc1` [Example 42, 5-Chloro-N-[4-[[(1R,4R)-5-oxa-2-azabicyclo[2.2.1]heptan-4-yl]methyl]phenyl]pyridin-2-amine] are 0.0158 µM and 0.355 µM.
For `FC(F)(F)c1ccc(Nc2ccc([C@]34CN[C@H](CO3)C4)cc2)nc1` [Example 61, N-[4-[(1 S,4R)-5-Oxa-2-azabicyclo[2.2.1]heptan-4-yl]phenyl]-5-(trifluoromethyl)pyridin-2-amine] the same measures were 0.0146 µM and 0.0293 µM.
With `CCOc1ccc(C(=O)Nc2ccc(C[C@@]34CN[C@@H](CO3)C4)cc2)cc1` [Example 49, 4-Ethoxy-N-[4-[[(1R,4R)-5-oxa-2-azabicyclo[2.2.1]heptan-4-yl]methyl]phenyl]benzamide], the Ki on mouse TAAR1 stood at 0.0067 µM; on rat TAAR1, 0.142 µM.
In the case of `O=C(Nc1ccc(C[C@]23CN[C@H](CO2)C3)cc1)c1ccc(OCC2CC2)cc1` [Example 25, 4-(Cyclopropylmethoxy)-N-[4-[[(1S,4S)-5-oxa-2-azabicyclo[2.2.1]heptan-4-yl]methyl]phenyl]benzamide], the Ki on mouse TAAR1 was 0.168 µM; on rat TAAR1, 0.0175 µM.
For `O=C(Nc1ccc(C[C@]23CN[C@H](CO2)C3)cc1)c1cnc(C2CC2)nc1` [Example 28, 2-Cyclopropyl-N-[4-[[(1S,4S)-5-oxa-2-azabicyclo[2.2.1]heptan-4-yl]methyl]phenyl]pyrimidine-5-carboxamide] the same measures were 0.36 µM and 1.58 µM.
In the same order, the values of `O=C(Nc1ccc(Cl)cc1)Nc1ccc(C23CCC(CO2)NC3)cc1` (racemic) [Example 66, (RS)-1-(4-Chlorophenyl)-3-[4-(5-oxa-2-azabicyclo[2.2.2]octan-4-yl)phenyl]urea] are 0.005 µM and 0.0465 µM.
For `FC(F)(F)c1cnc(Nc2ccc(C[C@]34CN[C@H](CO3)C4)cc2)nc1` [Example 33, N-[4-[[(1S,4S)-5-Oxa-2-azabicyclo[2.2.1]heptan-4-yl]methyl]phenyl]-5-(trifluoromethyl)pyrimidin-2-amine] the same measures were 5.8 µM and 0.881 µM.
Consider `CCOc1ccc(C(=O)Nc2ccc(C34CCC(CO3)NC4)cc2)cn1` (racemic) [Example 12, (RS)-6-Ethoxy-N-[4-(5-oxa-2-azabicyclo[2.2.2]octan-4-yl)phenyl]pyridine-3-carboxamide], for which the Ki stood at 0.0219 µM on mouse TAAR1 and 7.06 µM on rat TAAR1.
For `O=C(Nc1ccc([C@@]23CN[C@@H](CO2)C3)cc1)c1ccnc(C(F)(F)F)c1` [Example 57] the same measures were 0.0593 µM and 1.91 µM.
`O=C(Nc1ccc(C[C@@]23CN[C@@H](CO2)C3)cc1)c1ccnc(C(F)(F)F)c1` [Example 40, N-[4-[[(1R,4R)-5-Oxa-2-azabicyclo[2.2.1]heptan-4-yl]methyl]phenyl]-2-(trifluoromethyl)pyridine-4-carboxamide]: the Ki stood at 0.0522 µM at mouse TAAR1 and 0.0987 µM on rat TAAR1.
In the case of `CCN(C[C@H]1COC(N)=N1)c1ccccc1` [^3[H]-(S)-4-[(ethyl-phenyl-amino)-methyl]-4,5-dihydro-oxazol-2-ylamine, reference compound], the Kd at mouse TAAR1 (mouse TAAR1 membranes, saturation curve, read-out: dissociation constant (Kd) of the TAAR1 radioligand) is approximately 0.7 nM; at rat TAAR1 (rat TAAR1 membranes, saturation curve, read-out: dissociation constant (Kd) of the TAAR1 radioligand), approximately 2.3 nM.
For `O=C(Nc1ccc(C(F)(F)F)cc1)Nc1ccc(C23CCC(CO2)NC3)cc1` (racemic) [Example 67, (RS)-1-[4-(5-Oxa-2-azabicyclo[2.2.2]octan-4-yl)phenyl]-3-[4-(trifluoromethyl)phenyl]urea], the Ki at mouse TAAR1 is 0.0137 µM; on rat TAAR1, 0.0263 µM.
For the molecule `O=C(Nc1ccc([C@]23CN[C@H](CO2)C3)cc1)c1ccnc(C(F)(F)F)c1` [Example 60, N-[4-[(1S,4R)-5-Oxa-2-azabicyclo[2.2.1]heptan-4-yl]phenyl]-2-(trifluoromethyl)pyridine-4-carboxamide], the values for the Ki on mouse TAAR1 and at rat TAAR1 were 0.0512 µM and 0.273 µM, respectively.
For `O=C(Nc1ccc(C23CCC(CO2)NC3)cc1)c1ccc(OCC2CC2)cc1` (racemic) [Example 11, (RS)-4-(Cyclopropylmethoxy)-N-[4-(5-oxa-2-azabicyclo[2.2.2]octan-4-yl)phenyl]benzamide] the same measures were 0.019 µM and 1.22 µM.

Values taken from patent US9663530B2, “5-oxa-2-azabicyclo[2.2.2]OCTAN-4-yl and 5-oxa-2-azabicyclo[2.2.1]heptan-4-yl derivatives” (Hoffmann-La Roche Inc., priority 2014, dated 2017).
